In ChEMBL document CHEMBL1155604, “New norditerpenoid alkaloids from Aconitum falconeri” (J Nat Prod, 2000) one finds Activity and IC50 data, which are given here for 3 compounds.

The source made the active and inactive calls. No cut-off for these calls is given here.

One experiment has as its system Electrophorus electricus. The experiment in a line: (§1) Inhibition of electric eel acetylcholinesterase type VI-S after 30 mins by modified Ellman's assay. In general terms: DTNB colorimetry detects thiols as they appear.
Experiment [1] can be described thus: as §1. Details: species or system Electrophorus electricus.

As for `CCO[C@]12C[C@H](OC)[C@@]3(O)C[C@H]([C@@H]1[C@H]3OC(=O)c1ccc(OC)c(OC)c1)[C@@]13C4[C@@H]2[C@H](OC)[C@@H]1[C@](COC)(CN4CC)[C@H](O)C[C@@H]3OC`, the outcome in the experiment with Electrophorus electricus was inactive. Take `COC[C@]12CN(C=O)C3[C@@H]4[C@H](OC)[C@H]1[C@@]3([C@@H](OC)C[C@H]2O)[C@@H]1C[C@]2(O)[C@@H](OC)C[C@@]4(OC(C)=O)[C@H]1[C@H]2OC(=O)c1ccc(OC)c(OC)c1` [FALEOCONITINE]: 293 µM corresponded to half-maximal inhibition in experiment [1] (IC50).

`CCN1C[C@]2(COC)[C@H](O)C[C@H](OC)[C@]34C1[C@H]([C@H](OC)[C@H]23)[C@@]1(OC(C)=O)C[C@H](OC)[C@@]2(O)C[C@@H]4[C@@H]1[C@H]2OC(=O)c1ccc(OC)c(OC)c1` [PSEUDACONITINE]: the IC50 (usually the concentration that inhibits the measured activity by half) in experiment [1] was 278 µM.
